Measured values published in article PMC10135057, “Molecular Modification of Kex2 P1’ Site Enhances Expression and Druggability of Fungal Defensin” (Antibiotics, 2023).
“And” between values parts separate entries of the source, which are not always exact repeats. Identical values can stand only once. Like-named read-outs stand apart in the source and are kept apart here. One block for each molecule: values may come before it. Bridge positions count the residues as written; N and C are the ends. Ends that are not written are not given here.

How the values were obtained:
[1] = tested on: Staphylococcus aureus ATCC 43300; test: microbe, parasite or virus in culture; assay type: cell-based; conditions: S. aureus ATCC 43300, CLSI procedure, triplicate, read-out: MIC
Method: (§1) The minimal inhibitory concentrations (MICs) assay was performed according to the CLSI procedures with the final peptide concentrations of 256, 128, 64, 32, 16, 8, 4, 2, 1, and 0.5 μg/mL, respectively. All tests were conducted in triplicate.

[2] = tested on: Escherichia coli ATCC 25922; test: microbe, parasite or virus in culture; assay type: cell-based; conditions: Escherichia coli ATCC 25922, CLSI procedure, triplicate, read-out: MIC
Method: as §1

[3] = tested on: S. aureus ATCC 43300; test: Bactericidal kinetics (time-killing curves); assay type: cell-based, Staphylococcus aureus; conditions: FNZ 1×, 2×, 4× MIC; ampicillin 2× MIC; S. aureus ATCC 43300
Method: The S. aureus ATCC 43300 in logarithmic growth stage was diluted to a final concentration of 10^6 CFU/mL. […] Samples were taken at 0, 0.5, 1, 2, 4, 6, 8, 10, 20, and 24 h, serially diluted, and visible colonies were counted on MHA plates.

[4] = tested on: S. epidermidis ATCC 12228; test: microbe, parasite or virus in culture; assay type: cell-based, Staphylococcus epidermidis; conditions: S. epidermidis ATCC 12228, CLSI procedure, triplicate, read-out: MIC
Method: as §1

[5] = tested on: S. aureus ATCC 25923; test: microbe, parasite or virus in culture; assay type: cell-based, Staphylococcus aureus; conditions: S. aureus ATCC 25923, CLSI procedure, triplicate, read-out: MIC
Method: as §1

[6] = tested on: S. aureus E48; test: microbe, parasite or virus in culture; assay type: cell-based, Staphylococcus aureus; conditions: S. aureus E48, CLSI procedure, triplicate, read-out: MIC
Method: as §1

[7] = tested on: S. aureus CVCC 546; test: microbe, parasite or virus in culture; assay type: cell-based, Staphylococcus aureus; conditions: S. aureus CVCC 546, CLSI procedure, triplicate, read-out: MIC
Method: as §1

[8] = tested on: S. aureus ATCC 43300; test: microbe, parasite or virus in culture; assay type: cell-based, Staphylococcus aureus; conditions: S. aureus ATCC 43300; for MIC: Staphylococcus aureus, ATCC43300, read-out: MICa (MIC of drug alone)
Method: The effects of combination were evaluated by calculating the FICI. FICI ≤ 0.5 was defined as synergy, 0.5 < FICI ≤ 1 was defined as additivity, 1 < FICI ≤ 4 was defined as indifference, and FICI > 4 was defined as antagonism.

[9] = tested on: S. aureus ATCC 43300; test: pH stability (MIC after pH treatment); assay type: physicochemical, Staphylococcus aureus; conditions: MIC vs S. aureus ATCC 43300, triplicate
Method: (§2) The tolerance of FNZ to temperature and pH was evaluated. The stability of FNZ in simulated gastric fluid, artificial intestinal fluid and mouse serum was carried out as previously described. […] All assays were conducted in triplicate.

[10] = tested on: Pseudomonas aeruginosa CICC 20625; test: Minimal inhibitory concentration (MIC); assay type: cell-based; conditions: CLSI procedure, triplicate
Method: as §1

[11] = tested on: Salmonella enterica ATCC 13076; test: Minimal inhibitory concentration (MIC); assay type: cell-based; conditions: CLSI procedure, triplicate
Method: as §1

[12] = tested on: RAW264.7 cells; test: Cytotoxicity, MTT assay; assay type: cell-based, mouse; conditions: at 128 μg/mL, n = 3
From the text: The MTT assay was used to test the cytotoxicity of FNZ to the RAW 264.7 cells.

[13] = tested on: S. aureus ATCC 43300; test: Stability in mouse serum (MIC after treatment); assay type: in vitro ADME, Staphylococcus aureus; conditions: mouse serum (25%), 1–4 h
Method: as §2

[14] = tested on: S. aureus ATCC 43300; test: Stability in simulated gastric fluid (MIC after treatment); assay type: in vitro ADME, Staphylococcus aureus; conditions: 1 h, MIC vs S. aureus ATCC 43300, triplicate
Method: as §2

[15] = tested on: Gram-negative bacteria (E. coli, S. enterica, P. aeruginosa); test: MIC, summary over Gram-negative bacteria; assay type: cell-based
Method: as §1

[16] = tested on: S. aureus ATCC 43300; test: Thermal stability (MIC after heat treatment); assay type: physicochemical, Staphylococcus aureus; conditions: MIC vs S. aureus ATCC 43300, triplicate
Method: as §2

[17] = tested on: S. aureus ATCC 43300; test: Salts stability (MIC after incubation with Na+ or Mg2+); assay type: cell-based, Staphylococcus aureus; conditions: 37 °C, 1 h, MIC vs S. aureus ATCC 43300, triplicate, read-out: MIC after treatment
[18] = tested on: G+ bacteria (S. aureus, S. hyicus, S. agalactiae, S. epidermidis); test: MIC, summary over Gram-positive bacteria; assay type: cell-based; conditions: range over S. aureus
Method: as §1

- MIC ([1]; Staphylococcus aureus, ATCC43300): 2 µg/mL and 2.48 µM
- MIC ([2]; ATCC25922): 1 µg/mL and 1.24 µM
- MIC ([4]; Staphylococcus epidermidis, ATCC12228): 2 µg/mL and 2.48 µM
- MIC ([5]; Staphylococcus aureus, ATCC25923): 0.25 µg/mL and 0.62 µM
- MIC ([6]; Staphylococcus aureus): 0.25 µg/mL and 0.62 µM
- MIC ([7]; Staphylococcus aureus, CVCC546): 0.25 µg/mL and 0.62 µM
- MIC ([8]; checkerboard, 37 °C, 16 h): 2 µg/mL
Molecule: CC1(C)S[C@@H]2[C@H](NC(=O)[C@H](N)c3ccccc3)C(=O)N2[C@H]1C(=O)O [Ampicillin, ampicillin]
- Regrowth (rebound of colonies) up to 24 h [3]: rebound situation was observed
- Combination effect with FNZ (in words) ([8]; checkerboard): synergistic effect
- FIC ([8]; combination FNZ + Amp): 0.063

- MIC ([8]; checkerboard, 37 °C, 16 h): 0.25 µg/mL
- MICc (MIC of drug used in combination) ([8]; combination FNZ + Cip, checkerboard, 37 °C, 16 h): 0.375 µg/mL
Molecule: O=C(O)c1cn(C2CC2)c2cc(N3CCNCC3)c(F)cc2c1=O [Cip, ciprofloxacin]

- MICa (MIC of drug alone) ([8]; checkerboard, 37 °C, 16 h): 64 µg/mL
- MICc (MIC of drug used in combination) ([8]; combination FNZ + Kan, checkerboard, 37 °C, 16 h): 0.5 µg/mL
Molecule: NC[C@H]1O[C@H](O[C@H]2[C@H](O)[C@@H](O[C@H]3O[C@H](CO)[C@@H](O)[C@H](N)[C@H]3O)[C@H](N)C[C@@H]2N)[C@H](O)[C@@H](O)[C@@H]1O [Kan, kanamycin]
- Combination effect with FNZ (in words) ([8]; checkerboard): synergistic effect
- FIC ([8]; combination FNZ + Kan): 0.008

Molecule: FGFGCNGPWNEDDLRCHNHCKSIKGYKGGYCAKGGFVCKCY (disulfide 5-31, 16-38, 20-40) [FNZ]
- MIC after treatment ([9]; pH 2): 1.75 µM
- MIC after treatment ([9]; pH 4): 1.75 µM
- MIC after treatment ([9]; pH 6): 1.75 µM
- MIC after treatment ([9]; pH 8): 1.75 µM
- MIC after treatment ([9]; pH 10): 3.5 µM
- MIC [10]: >28.05 µM
- MIC [11]: >28.05 µM
- Cell viability (survival) [12]: 88.56%
- MIC [1]: 1.75 µM
- MIC [2]: >28.05 µM
- MIC [4]: 1.75 µM
- Serum stability (in words) ([13]; MIC read-out): Stable^a
- MIC after treatment ([13]; MIC vs S. aureus ATCC 43300, triplicate): 8 μg/mL and 1.75 μM
- MIC after treatment [14]: 8 μg/mL and 1.75 μM
- MICs, Gram-negative bacteria [15]: > 128 µg/mL
- MIC after treatment ([16]; 20 °C for 1 h): 1.75 µM
- MIC after treatment ([16]; 40 °C for 1 h): 1.75 µM
- MIC after treatment ([16]; 60 °C for 1 h): 1.75 µM
- MIC after treatment ([16]; 80 °C for 1 h): 1.75 µM
- MIC after treatment ([16]; 100 °C for 1 h): 3.5 µM
- MIC ([17]; 50 mM Mg2+): 1.75 µM
- MIC ([17]; 50 mM Na+): 1.75 µM
- MIC ([17]; 100 mM Mg2+): 1.75 µM
- MIC ([17]; 100 mM Na+): 1.75 µM
- MIC ([17]; 150 mM Mg2+): 1.75 µM
- MIC ([17]; 150 mM Na+): 1.75 µM
- MIC ([17]; 300 mM Mg2+): 3.5 µM
- MIC ([17]; 300 mM Na+): 1.75 µM
- MIC ([17]; 500 mM Mg2+): >7 µM
- MIC ([17]; 500 mM Na+): 3.5 µM
- MIC [5]: 1.75 µM
- MIC [6]: 0.88 µM
- MIC [7]: 1.75 µM
- FIC ([8]; combination FNZ + Amp): 0.016
- FIC ([8]; combination FNZ + Cip): 0.031
- FIC ([8]; combination FNZ + Kan): 0.063
- FIC ([8]; combination FNZ + Van): 0.125
- MICs, G+ bacteria [18]: 4 to 8 µg/mL
